We go through three compounds from patent US9289429B2, “Compounds and methods for inhibiting phosphate transport” (Ardelyx, Inc., priority 2010, dated 2016).

In one series the target is T1, human NaP2b (SLC34A2) (Homo sapiens, UniProt O95436).
T1 construct: host or cells: HEK293
T1 sequence (O95436 1-690): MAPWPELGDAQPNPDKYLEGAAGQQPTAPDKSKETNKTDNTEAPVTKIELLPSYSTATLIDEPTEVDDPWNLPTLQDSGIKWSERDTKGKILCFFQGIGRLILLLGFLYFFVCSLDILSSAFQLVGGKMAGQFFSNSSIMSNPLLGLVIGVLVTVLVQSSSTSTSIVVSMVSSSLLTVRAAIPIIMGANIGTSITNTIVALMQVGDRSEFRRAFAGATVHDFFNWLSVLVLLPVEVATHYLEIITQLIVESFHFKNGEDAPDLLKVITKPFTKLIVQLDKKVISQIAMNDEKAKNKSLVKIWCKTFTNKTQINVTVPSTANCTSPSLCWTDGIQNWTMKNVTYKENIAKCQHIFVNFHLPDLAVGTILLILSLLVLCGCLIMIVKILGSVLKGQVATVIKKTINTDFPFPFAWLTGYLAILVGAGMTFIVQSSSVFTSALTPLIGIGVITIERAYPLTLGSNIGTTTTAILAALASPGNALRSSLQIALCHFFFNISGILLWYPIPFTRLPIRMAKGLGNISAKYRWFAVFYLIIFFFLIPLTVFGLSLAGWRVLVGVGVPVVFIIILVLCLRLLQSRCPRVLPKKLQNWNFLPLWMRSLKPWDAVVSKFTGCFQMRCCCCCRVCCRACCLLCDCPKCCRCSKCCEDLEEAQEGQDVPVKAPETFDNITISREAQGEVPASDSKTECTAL
Briefly: NaP2b-mediated Pi transport (33P uptake) in transfected HEK293 cells, human transporter. To be noted: HEK293 cells transfected with human NaP2b (Thr inserted after residue 37, N39D), 33P phosphate uptake, 100 uM KH2PO4; read-out: pIC50 range for human Nap2b (converted). In kind it is cell-based. As for the experimental part:
(§1) HEK293 cells were obtained from the American Type Culture collection and propagated per their instructions. Expression clones for rat and human NaP2b (SLC34A2) were obtained from Open Biosystems (Catalog numbers MRN1768-9510282, and MHS1010-99823026, respectively). The sequence of the human protein was mutated to insert a threonine after residue 37, and to introduce a N39D mutation.
(§2) The rate of phosphate (Pi) uptake into HEK293 cells was measured using a modification of the method described by Mohrmann et al. (Mohrmann, I., Mohrmann, M., Biber, J., and Murer, H. (1986) Am. J. Phys. 250(3 Pt 1):G323-30.) Transfected HEK293 cells were treated with a pharmacological agent to minimize endogenous PiT-mediated phosphate transport activity, such that the only remaining sodium-dependent phosphate transport activity is that which was bestowed by introduction of the NaP2b genes.
(§3) Cells were seeded into 96-well plates at 25,000 cells/well and cultured overnight. Lipofectamine 2000 (Invitrogen) was used to introduce the NaP2b cDNA, and the cells were allowed to approach confluence during a second overnight incubation. […] Cells were then overlayed with either choline uptake buffer or sodium uptake buffer (14 mM Tris, 137 mM sodium chloride, 5.4 mM KCl, 2.8 mM CaCl2, 1.2 mM MgSO4, 100 uM KH2PO4, PiT-silencing agent, 1 mg/mL Bovine Serum Albumin, pH 7.4) containing 6-9 uCi/mL ^33P orthophosphoric acid (Perkin Elmer) and test compound. Each compound was tested at twelve concentrations ranging from 0.1 nM to 30 uM. Assays were run in duplicate.
(§4) After incubation for 3-30 minutes at room temperature, assay mixtures were removed, and the cells were washed twice with ice cold stop solution (137 mM sodium chloride, 14 mM Tris, pH 7.4). Cells were lysed by addition of 20 μL 0.1% Tween 80 followed by 100 μL scintillation fluid, and counted using a TopCount (Perkin Elmer).
(§5) pIC50 (the negative log of the IC50) values of the test compounds were calculated using GraphPad Prism.

Another series addresses T2, rat NaP2b (SLC34A2) (Rattus norvegicus, UniProt Q9JJ09).
T2 construct: host or cells: HEK293
T2 sequence (Q9JJ09 1-695): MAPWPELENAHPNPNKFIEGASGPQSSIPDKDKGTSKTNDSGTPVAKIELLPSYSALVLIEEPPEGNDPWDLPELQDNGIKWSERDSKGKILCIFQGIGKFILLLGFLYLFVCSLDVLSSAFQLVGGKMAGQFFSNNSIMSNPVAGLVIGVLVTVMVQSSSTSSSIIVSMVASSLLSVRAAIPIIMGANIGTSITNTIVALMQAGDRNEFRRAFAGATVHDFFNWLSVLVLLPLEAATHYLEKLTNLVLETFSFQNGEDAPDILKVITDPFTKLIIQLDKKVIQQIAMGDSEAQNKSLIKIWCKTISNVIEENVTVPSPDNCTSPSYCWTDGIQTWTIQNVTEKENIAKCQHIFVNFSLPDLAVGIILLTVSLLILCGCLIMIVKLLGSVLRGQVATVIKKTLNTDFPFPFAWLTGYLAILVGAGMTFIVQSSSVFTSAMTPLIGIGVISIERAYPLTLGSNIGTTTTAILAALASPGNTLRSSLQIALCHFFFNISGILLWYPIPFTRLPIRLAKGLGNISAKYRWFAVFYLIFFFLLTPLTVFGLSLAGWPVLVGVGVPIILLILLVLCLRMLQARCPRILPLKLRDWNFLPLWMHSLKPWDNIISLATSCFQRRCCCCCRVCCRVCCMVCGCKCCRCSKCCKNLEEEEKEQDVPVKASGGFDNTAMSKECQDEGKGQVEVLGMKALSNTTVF
Put plainly: NaP2b-mediated Pi transport (33P uptake) in transfected HEK293 cells, rat transporter. In kind it is cell-based. To be noted: HEK293 cells transfected with rat NaP2b, 33P phosphate uptake, 100 uM KH2PO4; read-out: pIC50 range for rat Nap2b (converted). The protocol:
as §1, §2, §3, §4, §5

The target of a further series is T3, NaPi2b (Rattus norvegicus, UniProt Q9JJ09).
T3 construct: host or cells: HEK293
T3 sequence (Q9JJ09 1-695): T2 sequence (Q9JJ09 1-695)
Put plainly: Competition with phosphate: Pi transport assay repeated at 2.1 vs 0.1 mM phosphate. In kind it is cell-based. Conditions: potency for inhibition of NaPi2b at 2.1 vs 0.1 mM phosphate. As for the experimental part:
To ascertain if an inhibitor was competitive for binding with phosphate, the procedure was repeated, but raising the concentration of the substrate in the assay mixture from 0.1 to 2.1 mM phosphate.

Series [1] can be described thus: Fecal recovery of orally administered compounds. The class given is in vivo. Conditions: rat, oral gavage, feces collected until 48 hr after dosing, same animals as Example 22. The protocol: Quantitative determination of test compound level in feces after oral gavage was performed using the same set of animals used to determine test compound concentration in plasma (Example 22). The animals were kept in metabolic cages and feces were collected from the time of dosing until 48 hr after dosing. Upon collection, feces was dried by lyophilization and ground to a visually homogenous powder. Duplicate samples of ground feces from each individual animal were weighed out and extracted using organic solvent. Extracted samples were then diluted into mobile phase and test compound levels were quantitatively determined by LC-MS/MS analysis as described in “Example 22” except that the standard curve was prepared in a feces matrix. Extraction conditions were not optimized for individual compounds, and thus may represent a minimal level of recovery.

Series [2] in a line: Determination of compound Cmax and AUC after oral gavage. In kind it is in vivo. Conditions: Sprague-Dawley, rat plasma, actual oral dose 8.9 mg/kg (Example 11) or 10 mg/kg (Example 2). The protocol:
Sprague-Dawley rats were orally gavaged with test article at a nominal dose of 2.5 or 10 mg/kg and blood was collected at 0.5, 1, 2 and 4 h. Blood samples were processed to plasma using K2EDTA as an anticoaglulant. Plasma samples were treated with acetonitrile containing an internal standard, precipitated proteins removed by centrifugation. Supernatants were analyzed by LC-MS/MS and compound concentrations were determined by interpolated from a standard curve prepared in plasma. All compounds were orally dosed at the dosage shown, and pharmacokinetic parameters determined

For the next series, the system named is Sprague-Dawley rats. Put plainly: In vivo bolus phosphate challenge. Conditions: rat, oral, Drug Dose 30 (unit not given), serum 30 min post phosphate bolus. As for the experimental part: By pretreating animals with a low phosphorus diet followed by the subsequent dosing of a phosphorus bolus, serum phosphorus levels were monitored after 30 minutes as a surrogate for intestinal phosphorus absorption. […] The in vivo bolus phosphorus challenge model used here mimics this model in rats.
Male, 7-week-old Sprague-Dawley rats (Charles-River laboratories international, Hollister, Calif.) were allowed to acclimate for a minimum of 3 days before switching to a synthetic low-phosphorus diet (TD.85010, Harlan Teklad, Madison, Wis.) which contains 0.1% phosphorus and 0.6% calcium. At day 5, testing compounds or vehicle alone (as indicated) were orally administered at the indicated dose in a volume of 5 ml/kg, followed by a bolus gavage of monobasic sodium phosphate (1 mmol in 1 ml) 15 min after compound dosing. Serum was collected via retroorbital bleeding 30 min post phosphate bolus and phosphate levels were determined utilizing an ACE ALERA blood chemistry analyzer (Alfa Wassermann Diagnostic Technologies, West Caldwell, N.J.).
The extent of inhibition by test compounds on the elevation of serum phosphate levels in response to the bolus of phosphate is shown in Table 3 (data are expressed as % Inhibition, with 6-10 animals per data point). The differences between groups were evaluated by one-way analysis of variance with Dunnett's post hoc tests.

On to `CN(CCN1CCOCC1)C(=O)c1cccc(C(=O)Nc2ccc(N3CCCCC3)cc2C(=O)Nc2cnc(-c3ccccc3)nc2)c1` [Example 11, N1-Methyl-N1-(2-morpholinoethyl)-N3-(2-((2-phenylpyrimidin-5-yl)carbamoyl)-4-(piperidin-1-yl)phenyl)isophthalamide], for which the IC50 on human NaP2b (SLC34A2) and at rat NaP2b (SLC34A2) was less than 1000 nM throughout. Besides, at NaPi2b, the “Competitive with respect to Pi?” value is recorded as “No”. In addition, the “% recovered in feces” value in series [1] was 26%.
The compound `O=C(O)CCSCc1cccc(C(=O)Nc2ccc(N3CCCCC3)cc2C(=O)Nc2cnc(-c3ccccc3)nc2)c1` [Example 2, 3-((3-((2-((2-Phenylpyrimidin-5-yl)carbamoyl)-4-(piperidin-1-yl)phenyl)carbamoyl)benzyl)thio)propanoic acid] came in with a Cmax in series [2] (LLOQ 5 ng/mL) of 645 ng/mL. Moreover, in series [2] (samples 0.5-4 h), the AUC amounted to 822 ng·h/mL. Moreover, on rat NaP2b (SLC34A2), the IC50 was 1000 to 7940 nM. The “% recovered in feces” value in series [1] was 16%.
As for `O=C(O)CCSCc1cccc(C(=O)Nc2ccc(N3CCCCC3)cc2C(=O)Nc2cnc(-c3cccc(C(F)(F)F)c3)nc2)c1` [Example 4, 3-((3-((4-(Piperidin-1-yl)-2-((2-(3-(trifluoromethyl)phenyl)pyrimidin-5-yl)carbamoyl)phenyl)carbamoyl)benzyl)thio)propanoic acid], on rat NaP2b (SLC34A2), the IC50 is 1000 to 7940 nM. Moreover, the “% Inhibition of Serum P elevation” value with Sprague-Dawley rats is on record as 11%.
